One block for each compound: values may come before it.
How the values were obtained:
[1] = Storage at 25 °C with constant exposure to the air; type: physicochemical
Experimental: The figures also show the separation of PGF2α and its 15-epimer. […] In FIGS. 4, 4a and 4b, all injections represent 100 μg of PGF2α initial samples.

[2] = Storage at -20 °C under argon, h.p.l.c. assay; type: physicochemical; details: samples taken at stipulated times
Experimental: Natural 9α,11α,15(S)-trihydroxy-5-cis,13-trans-prostadienoic acid, natural PGF2α, prepared from total synthesis was a soft, waxy semi-crystalline compound melting in the range of 25°-32°. […] The calibration appears in FIG. 1. FIG. 1, the PGF2α peak height conditions are as follows: column 4 feet ×0.125 inches o.d., column of Corasil -II. […] Flow 0.9ml/min. Reaction times: dioxane front appears at 30 min.
Weighed samples, 0.5-1.0 mg. ± 0.03 mg, of PGF2α and crystalline racemic PGF2α were placed in 1 dram vials. These vials were randomly divided between storage at -20° C under argon and storage at 41 ± 2°, open to the air, in a sand bath. […] In FIG. 2, the loss of PGF2α on storage open to air at 41 ± 2° C is set forth. […] PGF2α. The different symbols are used to indicate different samples. […] The numbers along the x-axis are days at 41 ± 2° C and along the y-axis are percents. The crystalline racemate assayed 103 ± 3% based on the natural compound.

physchem = assay: physchem
Experimental: A weighed sample was diluted with dioxane to produce a solution which was 10μg PGF2α /μl of solution. This solution was used to calibrate the response of the differential refractometer of a Waters Assoc. Model 100 high pressure liquid chromatograph (h.p.l.c.). The calibration appears in FIG. 1. FIG. 1, the PGF2α peak height conditions are as follows: column 4 feet ×0.125 inches o.d., column of Corasil -II. Solvent 0.2% HOAc/EtOAc wherein the former is acetic acid and the latter is ethyl acetate. Flow 0.9ml/min. Reaction times: dioxane front appears at […]. PGF2α at 14 min. from injection corresponding to column void volume after void volume displacement. The numbers on the x-axis are μg injected and the numbers along the y-axis indicate detector response in inches at peak heights.
Weighed samples, 0.5-1.0 mg. ± 0.03 mg, of PGF2α and crystalline racemic PGF2α were placed in 1 dram vials. These vials were randomly divided between storage at -20° C under argon and storage at 41 ± 2°, open to the air, in a sand bath. At stipulated times samples were removed from both types of storage, diluted to 10μg PGF2α /μl, and assayed by h.p.l.c. […] Individual assays of 41° C stored samples are collected in FIG. 2. […] The open symbols are for racemic PGF2α and the closed symbols are for nat. PGF2α. The different symbols are used to indicate different samples. Replicate analysis appear as multiple used of the same symbols at any one time. […] The numbers along the x-axis are days at 41 ± 2° C and along the y-axis are percents.
Since, prostaglandins, including the dienoics, are known to be unstable, as they undergo autoxidation on exposure to air. Methods of Biochemical Analysis, Vol. 17, pages 325 to 371, 1969, published by Interscience Publishers, New York.
FIGS. 3, 3a and 3b show the traces from rapid analysis, (at 1 ml/min.). […] In FIGS. 4, 4a and 4b, all injections represent 100 μg of PGF2α initial samples.

extent of oxidation ([1]; in 17 days, stated for comparison ("would be")): over half oxidized in 17 days
SMILES: CCCCC[C@H](O)/C=C/[C@@H]1[C@@H](C/C=C\CCCC(=O)O)[C@@H](O)C[C@H]1O (relative stereo) [Polymorph I, racemic 9α,11α,15(S)-trihydroxy-5-cis,13-trans-prostadienoic acid]

long term storage stability (overall finding) (physchem): superior long term storage stability | change after storage (physchem; after 14 days, open to air at 41 ± 2 °C): unchanged after 14 days | assay of crystalline racemate based on the natural compound (physchem; h.p.l.c., differential refractometer, based on natural PGF2α): 103 ± 3% | degraded (physchem; storage open to air): 3%
SMILES: CCCCC[C@H](O)/C=C/[C@@H]1[C@@H](C/C=C\CCCC(=O)O)[C@@H](O)C[C@H]1O (relative stereo) [Polymorph II, crystalline racemic 9α,11α,15(S)-trihydroxy-5-cis,13-trans-prostadienoic acid]
assay by h.p.l.c. against fresh standards after storage [2]: within experimental error of fresh standards (±6%) | crystalline loss on storage ([1]; 25 °C, constant exposure to the air, after more than one year): without any evidence of crystalline loss after more than one year

SMILES: CCCCC[C@H](O)/C=C/[C@@H]1[C@@H](C/C=C\CCCC(=O)O)[C@@H](O)C[C@H]1O [PGF2α, Natural 9α,11α,15(S)-trihydroxy-5-cis,13-trans-prostadienoic acid, reference compound]
assay by h.p.l.c. against fresh standards after storage [2]: within experimental error of fresh standards (±6%) | identity of degradation products versus 15-epi-PGF2α (physchem): Neither of the degradation products seen in the PGF2α sample stored 9 days at 41 °C corresponds to 15-epi-PGF2α

measured half life of degradation by oxidation (physchem): 17 days
SMILES: CCCCC[C@H](O)/C=C/[C@@H]1[C@@H](C/C=C\CCCC(=O)O)[C@@H](O)C[C@H]1O [oily PGF2α, reference compound]
course of degradation by oxidation (physchem): degrades by oxidation rapidly at first suggestive of a surface reaction, and then more slowly

Source: US3940438A, “Crystalline racemic 9α,11α,15(S)-trihydroxy-5-cis,13-trans-prostadienoic acid” (priority 1973, dated 1976)
